Test results as given in patent US7897640B2 (priority 2003, dated 2011).
Marks after values point to notes of the source that are not given here.

What was measured:
[1] = test system: duck hepatitis B virus (DHBV); test: pharmacotherapy test in DHBV infected ducklings, serum DHBV-DNA dot-blot; format: in vivo, Beijing ducklings
solubility = format: physicochemical
[2] = test system: AZT-resistant strain HIV-1 018c; conditions: PBMC, AZT-resistant HIV-1 018c
human T lymphocytes MT-4 = test: cytotoxicity by MTT in MT-4 culture; conditions: MT-4 culture with HIV-1 IIIB, 96 hours
HIV-1 IIIB [3] = test: HIV-1 P24 antigen inhibition in MT-4 culture; conditions: MT-4, HIV-1 IIIB
Procedure: MT-4 cell suspension was counted, then 100 μl of suspension (2×10^5 cells/ml) was seeded into 96-well cell culture plate, 50 μl liquor of 2× diluted medicament or 4-5× diluted positive medicament AZT (8 concentrations) was added, respectively, and 50 μl virus suspension with proper titer was add concurrently. Each dilution was repeated in 3 wells and cell control group and virus control group were established. They were incubated at 37° C., 5% CO2 saturated humidity incubator and the cytopathy was observed everyday. On the fourth day after administration (96 hours), the supernatants were sucked out and stored at −20° C. for measuring HIV-1-P24 antigen titer. Accordingly, the inhibition effect of medicament could be calculated, and the cells were dyed with MTT to measure the cytotoxicity.
The medicated cell supernatants infected with MT-4 were diluted after being thawed. HIV-1 P24 titer was measured according to the operation procedure described in HIV-1 P24 antigen kit.
[formula] 2.2.2 Reed & Muench Method for Calculating CC50 and EC50 of Medicament in Cell Culture
[formula] 2.2.3. Calculation Method of Selection Index (SI) of HIV-1 P24 Antigen in Cell Culture SI=CC50/EC50 3.

[4] = test system: human peripheral blood mononuclear cell (PBMC); test: cytotoxicity by MTT in HIV-infected PBMC culture; conditions: 96 hours
Procedure: 10 μl MTT dye (5 mg/ml) was added to each well, and then incubated at 37° C., 5% CO2 saturated humidity incubator for 4 hours. 100 μl 50% DMF-17% Triton X-100 destainer was added to each well and the mixtures were kept at 37° C. overnight. Then OD570nm values were measured at 570 nm with a luminometer to calculate the median cytotoxicity concentration of medicament (CC50).
The fresh normal human venous blood was taken and PBMC was separated using FiColl separation solution. The 1.5×10^5 cells/ml suspension prepared with the culture fluid containing PHA was seeded into the culture bottle and incubated in the incubator (37° C., 5% CO2) for 72 hours. The cells were collected with cell scrapers then were infected with the 10^−2 viral liquid of AZT-sensitive (018a) or AZT-resistant (018c) viral strain. After absorption for 2 hours, the non-absorbed viruses were washed with serum-free 1640 culture medium. The infected cells were prepared into 1×10^6 cells/ml with the culture fluid, and then were seeded into the 96-well culture board in 100 μl/well. At the same time, 100 μl liquor of 2× diluted AKJ-2 or 5× diluted positive control medicament AZT with different concentrations was added. The cell control group and virus control group were established. Four days (96 hours) after incubating under 37° C., 5% CO2, the supernatants were sucked out and stored at −20° C. to measure HIV-1-P24 antigen titer and calculate the inhibition effect of the medicament. The cells were dyed with MTT to measure the cytotoxicity.

[5] = test system: AZT-sensitive strain HIV-1 018a; test: HIV-1 P24 antigen inhibition in PBMC, AZT-sensitive strain; conditions: PBMC, AZT-sensitive HIV-1 018a
HIV-1 IIIB [6] = test: HIV-1 P24 antigen inhibition in chronically infected H9 cells
Procedure: HIV-1 P24 antigen titer was measured according to the operation procedures stated in HIV-1 P24 antigen kit.
100 μl (2×10^5 cells/ml) of H9 cells suspension was seeded into 96-well cell culture plate. Then, 100 μl liquor of 2× diluted medicament or 4-5× diluted positive AZT (8 concentrations) was added. Each dilution was repeated in three wells. The cell control group was established. The cells were incubated in the incubator (37° C., 5% CO2, saturated humidity) and the cytopathy was observed everyday. Four days (96 hours) after administration, the supernatants were sucked out and stored at −20° C. to measure HIV-1-P24 antigen titer. The inhibition effect of the medicament was determined. The cells were dyed with MTT to measure the cytotoxicity.
2.2.2 Reed & Muench Method for Calculating CC50 and EC50 of Medicament in Cell Culture
Calculation Method of Selection Index (SI) of HIV-1 P24 Antigen in Cell Culture SI=CC50/EC50 3.

[7] = test system: human T lymphocytes H9 chronically infected with HIV-1 IIIB; test: cytotoxicity by MTT in H9 cells chronically infected with HIV-1 IIIB; conditions: H9 cell chronically infected with HIV-1 IIIB, 96 hours

## CC(C)=CC[C@H](OC(=O)C=C(C)C)C1=CC(=O)c2c(O)ccc(O)c2C1=O [AKJ, β,β-dimethyl-acryl-alkannin]
[1]; Lot I, 25 mg/kg oral bid x 10 days, P3 (third day after cessation)
  Serum DHBV-DNA OD490 value (X ± SD): 0.792 ± 0.13
[1]; Lot I, 25 mg/kg oral bid x 10 days, P3 vs T0
  Serum DHBV-DNA level Inhibitory Rate (%): 5.43%
[1]; Lot I, 25 mg/kg oral bid x 10 days, T0 (day before administration)
  Serum DHBV-DNA OD490 value (X ± SD): 0.851 ± 0.15
[1]; Lot I, 25 mg/kg oral bid x 10 days, T5
  Serum DHBV-DNA OD490 value (X ± SD): 0.767 ± 0.18
[1]; Lot I, 25 mg/kg oral bid x 10 days, T5 vs T0
  Serum DHBV-DNA level Inhibitory Rate (%): 8.81%
[1]; Lot I, 25 mg/kg oral bid x 10 days, T10
  Serum DHBV-DNA OD490 value (X ± SD): 0.762 ± 0.15
[1]; Lot I, 25 mg/kg oral bid x 10 days, T10 vs T0
  Serum DHBV-DNA level Inhibitory Rate (%): 8.73%
[1]; Lot I, 50 mg/kg oral bid x 10 days, P3 (third day after cessation)
  Serum DHBV-DNA OD490 value (X ± SD): 0.696 ± 0.05
[1]; Lot I, 50 mg/kg oral bid x 10 days, P3 vs T0
  Serum DHBV-DNA level Inhibitory Rate (%): 32.39** %
[1]; Lot I, 50 mg/kg oral bid x 10 days, T0 (day before administration)
  Serum DHBV-DNA OD490 value (X ± SD): 1.082 ± 0.23
[1]; Lot I, 50 mg/kg oral bid x 10 days, T5
  Serum DHBV-DNA OD490 value (X ± SD): 0.961 ± 0.23
[1]; Lot I, 50 mg/kg oral bid x 10 days, T5 vs T0
  Serum DHBV-DNA level Inhibitory Rate (%): 9.16%
[1]; Lot I, 50 mg/kg oral bid x 10 days, T10
  Serum DHBV-DNA OD490 value (X ± SD): 0.680 ± 0.09
[1]; Lot I, 50 mg/kg oral bid x 10 days, T10 vs T0
  Serum DHBV-DNA level Inhibitory Rate (%): 33.56** %
[1]; Lot I, 100 mg/kg oral bid x 10 days, P3 (third day after cessation)
  Serum DHBV-DNA OD490 value (X ± SD): 0.667 ± 0.22
[1]; Lot I, 100 mg/kg oral bid x 10 days, P3 vs T0
  Serum DHBV-DNA level Inhibitory Rate (%): 44.91** %
[1]; Lot I, 100 mg/kg oral bid x 10 days, T0 (day before administration)
  Serum DHBV-DNA OD490 value (X ± SD): 1.207 ± 0.23
[1]; Lot I, 100 mg/kg oral bid x 10 days, T5
  Serum DHBV-DNA OD490 value (X ± SD): 0.987 ± 0.26
[1]; Lot I, 100 mg/kg oral bid x 10 days, T5 vs T0
  Serum DHBV-DNA level Inhibitory Rate (%): 17.86* %
[1]; Lot I, 100 mg/kg oral bid x 10 days, T10
  Serum DHBV-DNA OD490 value (X ± SD): 0.757 ± 0.19
[1]; Lot I, 100 mg/kg oral bid x 10 days, T10 vs T0
  Serum DHBV-DNA level Inhibitory Rate (%): 37.09** %
[1]; Lot II, 25 mg/kg oral bid x 10 days, P3 (third day after cessation)
  Serum DHBV-DNA OD490 value (X ± SD): 1.092 ± 0.13
[1]; Lot II, 25 mg/kg oral bid x 10 days, P3 vs T0
  Serum DHBV-DNA level Inhibitory Rate (%): −12.91%
[1]; Lot II, 25 mg/kg oral bid x 10 days, T0 (day before administration)
  Serum DHBV-DNA OD490 value (X ± SD): 1.005 ± 0.22
[1]; Lot II, 25 mg/kg oral bid x 10 days, T5
  Serum DHBV-DNA OD490 value (X ± SD): 1.061 ± 0.08
[1]; Lot II, 25 mg/kg oral bid x 10 days, T5 vs T0
  Serum DHBV-DNA level Inhibitory Rate (%): −8.66%
[1]; Lot II, 25 mg/kg oral bid x 10 days, T10
  Serum DHBV-DNA OD490 value (X ± SD): 0.928 ± 0.09
[1]; Lot II, 25 mg/kg oral bid x 10 days, T10 vs T0
  Serum DHBV-DNA level Inhibitory Rate (%): 5.67%
[1]; Lot II, 50 mg/kg oral bid x 10 days, P3 (third day after cessation)
  Serum DHBV-DNA OD490 value (X ± SD): 1.140 ± 0.25
[1]; Lot II, 50 mg/kg oral bid x 10 days, P3 vs T0
  Serum DHBV-DNA level Inhibitory Rate (%): 14.99%
[1]; Lot II, 50 mg/kg oral bid x 10 days, T0 (day before administration)
  Serum DHBV-DNA OD490 value (X ± SD): 1.375 ± 0.28
[1]; Lot II, 50 mg/kg oral bid x 10 days, T5
  Serum DHBV-DNA OD490 value (X ± SD): 1.075 ± 0.14
[1]; Lot II, 50 mg/kg oral bid x 10 days, T5 vs T0
  Serum DHBV-DNA level Inhibitory Rate (%): 20.22** %
[1]; Lot II, 50 mg/kg oral bid x 10 days, T10
  Serum DHBV-DNA OD490 value (X ± SD): 0.947 ± 0.13
[1]; Lot II, 50 mg/kg oral bid x 10 days, T10 vs T0
  Serum DHBV-DNA level Inhibitory Rate (%): 27.55* %
[1]; Lot II, 100 mg/kg oral bid x 10 days, P3 (third day after cessation)
  Serum DHBV-DNA OD490 value (X ± SD): 0.875 ± 0.17
[1]; Lot II, 100 mg/kg oral bid x 10 days, P3 vs T0
  Serum DHBV-DNA level Inhibitory Rate (%): 18.04* %
[1]; Lot II, 100 mg/kg oral bid x 10 days, T0 (day before administration)
  Serum DHBV-DNA OD490 value (X ± SD): 1.080 ± 0.21
[1]; Lot II, 100 mg/kg oral bid x 10 days, T5
  Serum DHBV-DNA OD490 value (X ± SD): 0.872 ± 0.13
[1]; Lot II, 100 mg/kg oral bid x 10 days, T5 vs T0
  Serum DHBV-DNA level Inhibitory Rate (%): 18.14** %
[1]; Lot II, 100 mg/kg oral bid x 10 days, T10
  Serum DHBV-DNA OD490 value (X ± SD): 0.670 ± 0.14
[1]; Lot II, 100 mg/kg oral bid x 10 days, T10 vs T0
  Serum DHBV-DNA level Inhibitory Rate (%): 36.65** %
[1]; Lot III, 25 mg/kg oral bid x 10 days, P3 (third day after cessation)
  Serum DHBV-DNA OD490 value (X ± SD): 1.035 ± 0.21
[1]; Lot III, 25 mg/kg oral bid x 10 days, P3 vs T0
  Serum DHBV-DNA level Inhibitory Rate (%): 16.14* %
[1]; Lot III, 25 mg/kg oral bid x 10 days, T0 (day before administration)
  Serum DHBV-DNA OD490 value (X ± SD): 1.263 ± 0.35
[1]; Lot III, 25 mg/kg oral bid x 10 days, T5
  Serum DHBV-DNA OD490 value (X ± SD): 1.079 ± 0.23
[1]; Lot III, 25 mg/kg oral bid x 10 days, T5 vs T0
  Serum DHBV-DNA level Inhibitory Rate (%): 11.66* %
[1]; Lot III, 25 mg/kg oral bid x 10 days, T10
  Serum DHBV-DNA OD490 value (X ± SD): 1.076 ± 0.16
[1]; Lot III, 25 mg/kg oral bid x 10 days, T10 vs T0
  Serum DHBV-DNA level Inhibitory Rate (%): 11.96* %
[1]; Lot III, 50 mg/kg oral bid x 10 days, P3 (third day after cessation)
  Serum DHBV-DNA OD490 value (X ± SD): 1.368 ± 0.11
[1]; Lot III, 50 mg/kg oral bid x 10 days, P3 vs T0
  Serum DHBV-DNA level Inhibitory Rate (%): 16.59** %
[1]; Lot III, 50 mg/kg oral bid x 10 days, T0 (day before administration)
  Serum DHBV-DNA OD490 value (X ± SD): 1.649 ± 0.13
[1]; Lot III, 50 mg/kg oral bid x 10 days, T5
  Serum DHBV-DNA OD490 value (X ± SD): 1.459 ± 0.28
[1]; Lot III, 50 mg/kg oral bid x 10 days, T5 vs T0
  Serum DHBV-DNA level Inhibitory Rate (%): 11.03* %
[1]; Lot III, 50 mg/kg oral bid x 10 days, T10
  Serum DHBV-DNA OD490 value (X ± SD): 1.411 ± 0.31
[1]; Lot III, 50 mg/kg oral bid x 10 days, T10 vs T0
  Serum DHBV-DNA level Inhibitory Rate (%): 13.00%
[1]; Lot III, 100 mg/kg oral bid x 10 days, P3 (third day after cessation)
  Serum DHBV-DNA OD490 value (X ± SD): 1.146 ± 0.56
[1]; Lot III, 100 mg/kg oral bid x 10 days, P3 vs T0
  Serum DHBV-DNA level Inhibitory Rate (%): 18.34%
[1]; Lot III, 100 mg/kg oral bid x 10 days, T0 (day before administration)
  Serum DHBV-DNA OD490 value (X ± SD): 1.474 ± 0.38
[1]; Lot III, 100 mg/kg oral bid x 10 days, T5
  Serum DHBV-DNA OD490 value (X ± SD): 1.351 ± 0.30
[1]; Lot III, 100 mg/kg oral bid x 10 days, T5 vs T0
  Serum DHBV-DNA level Inhibitory Rate (%): 2.76%
[1]; Lot III, 100 mg/kg oral bid x 10 days, T10
  Serum DHBV-DNA OD490 value (X ± SD): 1.046 ± 0.42
[1]; Lot III, 100 mg/kg oral bid x 10 days, T10 vs T0
  Serum DHBV-DNA level Inhibitory Rate (%): 28.41** %
solubility; DMSO
  solubility in DMSO: soluble
solubility; water
  solubility in water: insoluble
[2]
  Selection index (CC50/EC50): 5.75 ± 0.67
[2]; 96 hours
  Median effective concentration (EC50), HIV-1 P24 antigen: 0.97 ± 0.13 µg/mL
Human T lymphocytes MT-4
  Median cytotoxicity concentration (CC50): 0.31 ± 0.04 µg/mL
HIV-1 IIIB [3]
  Selection index (CC50/EC50): 4.49 ± 0.94
HIV-1 IIIB [3]; 96 hours
  Median effective concentration (EC50), HIV-1 P24 antigen: 0.07 ± 0.01 µg/mL
[4]; PBMC infected with AZT-resistant HIV-1 018c
  Median cytotoxicity concentration (CC50): 5.55 ± 0.136 µg/mL
[4]; PBMC infected with AZT-sensitive HIV-1 018a
  Median cytotoxicity concentration (CC50): 5.66 ± 0.28 µg/mL
[5]
  Selection index (CC50/EC50): 5.12 ± 0.33
[5]; 96 hours
  Median effective concentration (EC50), HIV-1 P24 antigen: 1.11 ± 0.11 µg/mL
HIV-1 IIIB [6]; H9 cell chronically infected with HIV-1 IIIB, 96 hours
  Median effective concentration (EC50), HIV-1 P24 antigen: >0.25 ± 0 µg/mL
HIV-1 IIIB [6]; two lots of tests
  inhibition effect on HIV-1 IIIB chronically-infected H9 cells: no inhibition effect
[7]
  Median cytotoxicity concentration (CC50): 1.915 ± 0.09 µg/mL
